Measured values published in patent US12396961B2, “Compounds and compositions for intracellular delivery of agents” (ModernaTX, Inc., priority 2015, dated 2025).

Legend:
[1] = test system: luciferase (Luc) mRNA expression; assay: Luc expression (AUC) in CD-1 mice relative to MC3; assay type: in vivo; conditions: for Liver/Spleen Ratio / Lipid/MC3 AUC: Table 7c; for Lipid/MC3 AUC: AUC relative to MC3; for Lipid/MC3 Luc CD-1 (mice): Luc expression relative to MC3, CD-1 mice
Method: FIG. 15 is a graph summarizing luciferase expression levels at 6 h after administration of nanoparticle compositions containing compounds of the disclosure to CD-1 mice at a dose of 0.5 mpk. Total light flux values were acquired via body luminescent imaging (BLI) 6 h after administration. In this Figure, the numbers 1-7 and 10 refer to the compositions containing Compounds 4-10 and MC3 respectively.
In contrast, hEPO expression in rats induced by administration of nanoparticle composition including compound according to one of formulae (I), (Ia1)-(Ia6), (Ib), (II), (IIa), (III), and (IIIa) was substantially lower than that measured for MC3. […] Table 7c and 7d show additional protein expressions and clearance data from compositions with various compounds disclosed herein as compared to with MC3.

[2] = Particle size and polydispersity index (Zetasizer Nano ZS); assay type: physicochemical; conditions: Table 1; DOPE 40:20:38.5:1.5, Luc mRNA
Text: Nanoparticle compositions may be characterized by a variety of methods. For example, microscopy (e.g., transmission electron microscopy or scanning electron microscopy) may be used to examine the morphology and size distribution of a nanoparticle composition. Dynamic light scattering or potentiometry (e.g., potentiometric titrations) may be used to measure zeta potentials. Dynamic light scattering may also be utilized to determine particle sizes. Instruments such as the Zetasizer Nano ZS (Malvern Instruments Ltd, Malvern, Worcestershire, UK) may also be used to measure multiple characteristics of a nanoparticle composition, such as particle size, polydispersity index, and zeta potential.
A Zetasizer Nano ZS (Malvern Instruments Ltd, Malvern, Worcestershire, UK) can be used to determine the particle size, the polydispersity index (PDI) and the zeta potential of the nanoparticle compositions in 1×PBS in determining particle size and 15 mM PBS in determining zeta potential.

Row | Structure (SMILES) | Liver/Spleen Ratio [1] | Lipid/MC3 AUC [1] | Lipid/MC3 Luc CD-1 (mice) [1] | PDI [2]
1 | CCCCCCCCCN(CCCC(=O)OCCCCC)CCN(CCCCCCCCC)CC(=O)N1CCN(C(=O)CN(CCCCCCCCC)CCCC(=O)OCCCCC)CC1 [Compound 71, Pentyl 4-(nonyl(2-(4-(N-nonyl-N-(2-(nonyl(4-oxo-4-(pentyloxy)butyl)amino)ethyl)glycyl)piperazin-1-yl)-2-oxoethyl)amino)butanoate] | 25 | 1.25 |  | 
2 | CCCCCCCCCN(CCCCCCCC(=O)OC)CCN(CCCCCCCCC)CC(=O)N1CCN(C(=O)CN(CCCCCCCCC)CCCCCCCCC)CC1 [Compound 46, Methyl 8-((2-((2-(4-(dinonylglycyl)piperazin-1-yl)-2-oxoethyl)(nonyl)amino)ethyl)(nonyl)amino)octanoate] |  |  | 0.46 | 0.160
3 | CCCCCCCCCN(CCCCCCCCC)CCN(CCCCCCCC(=O)OC)CC(=O)N1CCN(C(=O)CN(CCCCCCCCC)CCCCCCCCC)CC1 [Compound 47, Methyl 8-((2-(dinonylamino)ethyl)(2-(4-(dinonylglycyl)piperazin-1-yl)-2-oxoethyl)amino)octanoate] |  |  | 0.22 | 0.180
4 | CCCCCCCCCN(CCCCCCCC(=O)OC)CCN(CCCCCCCC(=O)OC)CC(=O)N1CCN(C(=O)CN(CCCCCCCCC)CCCCCCCCC)CC1 [Compound 48, Methyl 8-((2-(4-(dinonylglycyl)piperazin-1-yl)-2-oxoethyl)(2-((8-methoxy-8-oxooctyl)(nonyl)amino)ethyl)amino)octanoate] |  |  | 0.01 | 0.099
5 | CCCCCCCCCN(CCCCC(=O)OCCCC)CCC1CCN(C(=O)CN(CCCCCCCCC)CCN(CCCCCCCCC)CCCCCCCCC)CC1 [Compound 60, Butyl 5-((2-(1-(N-(2-(dinonylamino)ethyl)-N-nonylglycyl)piperidin-4-yl)ethyl)(nonyl)amino)pentanoate] | 15 | 2.00 |  | 
6 | CCCCCCCCCCCCCCN(CCCCCCCCCCCCCC)CC(=O)N1CCN(C(=O)CN(CCCCCCCCC)CCN(CCCCCCCCC)CCCCCCCCC)CC1 [Compound 51, 2-((2-(Dinonylamino)ethyl)(nonyl)amino)-1-(4-(ditetradecylglycyl)piperazin-1-yl)ethan-1-one] |  |  | 5.22 | 0.190
7 | CCCCCCCCCN(CCCCCCCCC)CCN(CCCCCCCCC)CC(=O)N1CCN(C(=O)CN(CCCCCCCCC)CCCCCC(=O)OCCC)CC1 [Compound 54, Propyl 6-((2-(4-(N-(2-(dinonylamino)ethyl)-N-nonylglycyl)piperazin-1-yl)-2-oxoethyl)(nonyl)amino)hexanoate] | 32 | 0.13 |  | 
8 | CCCCCCCCCN(CCCCCCCCC)CCN(CCCCCCCCC)CC(=O)N1CC2CC1CN2C(=O)CN(CCCCCCCCC)CCCCCCCCC (stereo not shown) [Compound 42, 2-(Dinonylamino)-1-(5-(N-(2-(dinonylamino)ethyl)-N-nonylglycyl)-2,5-diazabicyclo[2.2.1]heptan-2-yl)ethan-1-one] |  |  | 3.99 | 0.190
9 | CCCCCCCCCN(CCCCCCCCC)CCC(=O)N1CCN(C(=O)CCN(CCCCCCCCC)CCN(CCCCCCCCC)CCCCCCCCC)CC1 [Compound 52, 3-(Dinonylamino)-1-(4-(3-((2-(dinonylamino)ethyl)(nonyl)amino)propanoyl)piperazin-1-yl)propan-1-one] |  |  | 7.46 | 0.100
10 | CCCCCCCCCN(CCCCCCCCC)CCN(CCCCCCCCC)CC(=O)N1CCN(C(=O)CN(CCCCCCCCC)CCCCCCCC(=O)OC)CC1 [Compound 44, Methyl 8-((2-(4-(N-(2-(dinonylamino)ethyl)-N-nonylglycyl)piperazin-1-yl)-2-oxoethyl)(nonyl)amino)octanoate] |  |  | 0.82 | 0.190
11 | CCCCCCCCCN(CCCCCC(=O)OCCC)CCC1CCN(C(=O)CN(CCCCCCCCC)CCN(CCCCCCCCC)CCCCCCCCC)CC1 [Compound 59, Propyl 6-((2-(1-(N-(2-(dinonylamino)ethyl)-N-nonylglycyl)piperidin-4-yl)ethyl)(nonyl)amino)hexanoate] | 5 | 0.84 |  | 
